Patent US20050037923A1, “Herbicidal mixture based on 7-pyrazolybenzoxazoles” (BASF Aktiengesellschaft, priority 2001, published 2005)

Tests used:
[1] = system: POLPE; assay: Greenhouse test, post-emergence herbicidal action; format: in vivo, ladysthumb
Source text: (§1) For the post-emergence treatment, the test plants were first grown to a height of 3 to 20 cm, depending on the plant habit, and only then treated. Here, the herbicidal compositions were suspended or emulsified in water as distribution medium and sprayed using finely distributing nozzles.
(§2) The respective components A and B and/or C were formulated as 10% by weight strength emulsion concentrate and introduced to the spray liquor with the amount of solvent system used for applying the active compound. In the examples, the solvent used was water.
(§3) The test period extended over 21 days. During this time, the plants were tended, and their response to the treatments with active compound was evaluated.
(§4) The evaluation for the damage caused by the chemical compositions was carried out using a scale from 0 to 100%, compared to the untreated control plants. Here, 0 means no damage and 100 means complete destruction of the plants.
(§5) In the examples below, the value E which is to be expected if the activity of the individual active compounds is just additive was calculated using the method of S. R. Colby (1967) “Calculating synergistic and antagonistic responses of herbicide combinations”, Weeds 15, p. 22 ff. E=X+Y—(X·Y/100) where • X=effect in percent using active compound A at an application rate a; • Y=effect in percent using active compound B at an application rate b; • E=expected effect (in %) of A+B at application rates a+b.
(§6) The plants used in the greenhouse experiments were of the following species: […]

[2] = system: COMBE; assay: Greenhouse test, post-emergence herbicidal action; format: in vivo, tropical spiderwort; details: 21 days
Source text: as §1, §2, §3, §4, §5, §6

[3] = system: BIDPI; assay: Greenhouse test, post-emergence herbicidal action; format: in vivo, hairy beggarticks
Source text: as §1, §2, §3, §4, §5, §6

[4] = system: GALAP; assay: Greenhouse test, post-emergence herbicidal action; format: in vivo, catchweed bedstraw
Source text: as §1, §2, §3, §4, §5, §6

[5] = system: ECHCG; assay: Greenhouse test, post-emergence herbicidal action; format: in vivo, barnyardgrass
Source text: as §1, §2, §3, §4, §5, §6

[6] = system: AVEFA; assay: Greenhouse test, post-emergence herbicidal action; format: in vivo, wild oat
Source text: as §1, §2, §3, §4, §5, §6

[7] = system: THLAR; assay: Greenhouse test, pre-emergence herbicidal action; format: in vivo, fanweed; details: application rate 250 g/ha
Source text: For the pre-emergence treatment, the test plants were sown is pots 1-2 days later, i.e. prior to germination, the pots were sprayed with the finely distributed herbicidal compositions, which had been suspended in water.
as §2, §3, §4, §5, §6

[8] = system: SETVI; assay: Greenhouse test, post-emergence herbicidal action; format: in vivo, green foxtail; details: application rate 15.63 g/ha
Source text: as §1, §2, §3, §4, §5, §6

[9] = system: SETFA; assay: Greenhouse test, post-emergence herbicidal action; format: in vivo, giant foxtail; details: 21 days
Source text: as §1, §2, §3, §4, §5, §6

[10] = application rate 15.63 g/ha, 21 days
[11] = application rate 31.25 g/ha, 21 days
[12] = application rate 125 g/ha (Example 32)
[13] = application rate 250 g/ha (Example 32)
[14] = application rate 7.81 g/ha, 21 days
[15] = application rate 62.5 g/ha (Example 24)
[16] = application rate 125 g/ha (Example 24)

Structure (SMILES): Cc1cnc(C2=NC(=O)C(C)(C(C)C)N2)c(C(=O)O)c1 (centres unmarked) [imazapic, reference compound]
- Herbicidal action against POLPE, Found [1, 10]: 75%
- Herbicidal action against POLPE, Found [1, 11]: 80%
- Herbicidal action against COMBE, Found ([2]; application rate 15.63 g/ha): 0%
- Herbicidal action against COMBE, Found ([2]; application rate 31.25 g/ha): 40%

Structure (SMILES): CCc1cnc(C2=NC(C)(C(C)C)C(=O)N2)c(C(=O)O)c1 (centres unmarked) [imazethapyr, reference compound]
- Herbicidal action against POLPE, Found [1, 10]: 40%
- Herbicidal action against POLPE, Found [1, 11]: 60%
- Herbicidal action against COMBE, Found ([2]; application rate 15.63 g/ha): 20%
- Herbicidal action against COMBE, Found ([2]; application rate 31.25 g/ha): 40%

Structure (SMILES): CC(C)c1ccc(NC(=O)N(C)C)cc1 [isoproturon]
- Herbicidal action against BIDPI, Found ([3]; application rate 62.5 g/ha): 30%
- Herbicidal action against BIDPI, Found ([3]; application rate 125 g/ha): 60%

Structure (SMILES): CCC(C)(CC)c1cc(NC(=O)c2c(OC)cccc2OC)on1 [isoxaben]
- Herbicidal action against GALAP, Found [4, 12]: 0%
- Herbicidal action against GALAP, Found [4, 13]: 0%
- Herbicidal action against ECHCG, Found [5, 12]: 0%
- Herbicidal action against ECHCG, Found [5, 13]: 0%

Structure (SMILES): CS(=O)(=O)c1ccc(C(=O)C2C(=O)CCCC2=O)c([N+](=O)[O-])c1 [mesotrione]
- Herbicidal action against ECHCG, Found ([5]; application rate 7.81 g/ha): 45%
- Herbicidal action against ECHCG, Found ([5]; application rate 15.63 g/ha): 70%

Structure (SMILES): COc1cc(OC)nc(NC(=O)NS(=O)(=O)c2ncccc2C(=O)N(C)C)n1 [nicosulfuron]
- Herbicidal action against BIDPI, Found ([3]; application rate 3.91 g/ha (Example 26)): 70%
- Herbicidal action against BIDPI, Found ([3]; application rate 7.81 g/ha (Example 26)): 80%

Structure (SMILES): C[n+]1ccc(-c2cc[n+](C)cc2)cc1 [paraquat]
- Herbicidal action against AVEFA, Found ([6]; application rate 62.5 g/ha): 70%
- Herbicidal action against AVEFA, Found ([6]; application rate 125 g/ha): 80%

Structure (SMILES): CCC(CC)Nc1c([N+](=O)[O-])cc(C)c(C)c1[N+](=O)[O-] [pendimethalin]
- Herbicidal action against THLAR, Found [7]: 40%

Structure (SMILES): O=C(Nc1ccc(F)cc1)c1cccc(Oc2cccc(C(F)(F)F)c2)n1 [picolinafen]
- Herbicidal action against SETVI, Found [8]: 40%

Structure (SMILES): CCCC(=NOCC(C)Oc1ccc(Cl)cc1)C1=C(O)CC(C2CCCSC2)CC1=O (centres unmarked) [profoxydim, reference compound]
- Herbicidal action against GALAP, Found [4, 14]: 30%
- Herbicidal action against GALAP, Found [4, 10]: 30%

Structure (SMILES): CCCOc1nn(C(=O)[N-]S(=O)(=O)c2ccccc2C(=O)OC)c(=O)n1C.[Na+] [propoxycarbazone sodium salt]
- Herbicidal action against BIDPI, Found ([3]; application rate 3.91 g/ha (Example 27)): 30%
- Herbicidal action against BIDPI, Found ([3]; application rate 7.81 g/ha (Example 27)): 40%

Structure (SMILES): CCOC(=O)c1cnn(C)c1S(=O)(=O)NC(=O)Nc1nc(OC)cc(OC)n1 [pyrazosulfuron-ethyl, reference compound]
- Herbicidal action against POLPE, Found [1, 10]: 40%
- Herbicidal action against POLPE, Found [1, 11]: 55%
- Herbicidal action against AVEFA, Found [6, 10]: 0%
- Herbicidal action against AVEFA, Found [6, 11]: 10%

Structure (SMILES): O=C(O)c1c(Cl)ccc2cc(Cl)cnc12 [quinclorac]
- Herbicidal action against POLPE, Found [1, 15]: 15%
- Herbicidal action against POLPE, Found [1, 16]: 15%
- Herbicidal action against ECHCG, Found [5, 15]: 10%
- Herbicidal action against ECHCG, Found [5, 16]: 10%

Structure (SMILES): CC/C(=N\OC/C=C/Cl)C1=C(O)CC(C2CCOCC2)CC1=O (centres unmarked) [tepraloxydim, reference compound]
- Herbicidal action against SETFA, Found ([9]; application rate 7.81 g/ha): 70%
- Herbicidal action against SETFA, Found ([9]; application rate 15.63 g/ha): 80%
- Herbicidal action against AVEFA, Found [6, 14]: 70%
- Herbicidal action against AVEFA, Found [6, 10]: 80%
